Results as given in patent US7396837B2, “Antitumoral analogs of lamellarins” (Pharma Mar, S.A.U., priority 2002, dated 2008).

What was measured:
Format in all cases: cell-based
[1] = system: LoVo-Dox; test: SRB colorimetric cell growth inhibition assay, LoVo-Dox (MDR); details: Homo sapiens, LOVO-DOX
Outline: (§1)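 Continuous-exposure format, human tumour lines. SRB colour reaction quantifies growth/viability. Triplicate wells → mean ± SD → GI, TGI, LC.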

[2] = system: K-562; test: SRB colorimetric cell growth inhibition assay, K-562; details: Homo sapiens, K562, K-562
Outline: as §1

[3] = system: SK-BR-3; test: SRB colorimetric cell growth inhibition assay, SK-BR-3; details: Homo sapiens, SK-BR-3, SK-BR-3
Outline: as §1

[4] = system: PANC-1; test: SRB colorimetric cell growth inhibition assay, PANC-1; details: Homo sapiens, PANC-1, PANC-1
Outline: as §1

[5] = system: LoVo; test: SRB colorimetric cell growth inhibition assay, LoVo; details: Homo sapiens, LoVo
Outline: as §1

[6] = system: DU-145; test: SRB colorimetric cell growth inhibition assay, DU-145; details: Homo sapiens, DU-145, DU-145
Outline: as §1

[7] = system: IGROV; test: SRB colorimetric cell growth inhibition assay, IGROV; details: Homo sapiens, IGROV
Outline: as §1

[8] = system: SK-MEL-28; test: SRB colorimetric cell growth inhibition assay, SK-MEL-28; details: Homo sapiens, SK-MEL-28, MEL-28
Outline: as §1

[9] = system: HeLa-APL; test: SRB colorimetric cell growth inhibition assay, HeLa-APL (aplidine resistant); details: Homo sapiens, HELA-APL
Outline: as §1

[10] = system: LNCaP; test: SRB colorimetric cell growth inhibition assay, LNCaP; details: Homo sapiens, LNCaP, LN-caP
Outline: as §1

[11] = system: A-549; test: SRB colorimetric cell growth inhibition assay, A-549; details: Homo sapiens, A549, A-549
Outline: as §1

[12] = system: HT-29; test: SRB colorimetric cell growth inhibition assay, HT-29; details: Homo sapiens, HT-29, HT-29
Outline: as §1

[13] = system: IGROV-ET; test: SRB colorimetric cell growth inhibition assay, IGROV-ET (ET-743 resistant); details: Homo sapiens, IGROV-ET
Outline: as §1

[14] = system: HeLa; test: SRB colorimetric cell growth inhibition assay, HeLa; details: Homo sapiens, HeLa
Outline: as §1

Work on `COc1cc(-c2c3c4cc(OC)c(O)cc4oc(=O)c3n3ccc4c([N+](=O)[O-])cccc4c23)ccc1O` [Compound 53] yielded a GI50 ([1]; GI=growth inhibition, read-out: GI50 LOVO-DOX) of 20.1 µM, a CC50 ([1]; LC=cell killing (cytotoxic effect), read-out: LC50 LOVO-DOX) of 20.1 µM and an IC (TGI) ([1]; TGI=total growth inhibition (cytostatic effect), read-out: TGI LOVO-DOX) of 20.1 µM. It also gave a GI50 ([2]; GI=growth inhibition, read-out: GI50 K-562) of 10.3 µM, a CC50 ([2]; LC=cell killing (cytotoxic effect), read-out: LC50 K-562) of 20.1 µM and an IC (TGI) ([2]; TGI=total growth inhibition (cytostatic effect), read-out: TGI K-562) of 20.1 µM. For the same compound, the GI50 ([3]; GI=growth inhibition, read-out: GI50 SK-BR-3) was 1990 nM, the CC50 ([3]; LC=cell killing (cytotoxic effect), read-out: LC50 SK-BR-3) was 20.1 µM and the IC (TGI) ([3]; TGI=total growth inhibition (cytostatic effect), read-out: TGI SK-BR-3) was 9.49 µM. The GI50 ([4]; GI=growth inhibition, read-out: GI50 PANC-1) was 1030 nM, the CC50 ([4]; LC=cell killing (cytotoxic effect), read-out: LC50 PANC-1) was 20.1 µM and the IC (TGI) ([4]; TGI=total growth inhibition (cytostatic effect), read-out: TGI PANC-1) was 9.67 µM. For the same compound, the GI50 ([5]; GI=growth inhibition, read-out: GI50 LOVO) was 11.1 µM, the CC50 ([5]; LC=cell killing (cytotoxic effect), read-out: LC50 LOVO) was 20.1 µM and the IC (TGI) ([5]; TGI=total growth inhibition (cytostatic effect), read-out: TGI LOVO) was 20.1 µM. The GI50 ([6]; GI=growth inhibition, read-out: GI50 DU-145) was 4.53 µM, the CC50 ([6]; LC=cell killing (cytotoxic effect), read-out: LC50 DU-145) was 20.1 µM and the IC (TGI) ([6]; TGI=total growth inhibition (cytostatic effect), read-out: TGI DU-145) was 12.3 µM. For the same compound, the GI50 ([7]; GI=growth inhibition, read-out: GI50 IGROV) was 1380 nM, the CC50 ([7]; LC=cell killing (cytotoxic effect), read-out: LC50 IGROV) was 20.1 µM and the IC (TGI) ([7]; TGI=total growth inhibition (cytostatic effect), read-out: TGI IGROV) was 20.1 µM. It also gave a GI50 ([8]; GI=growth inhibition, read-out: GI50 MEL-28) of 4.03 µM, a CC50 ([8]; LC=cell killing (cytotoxic effect), read-out: LC50 MEL-28) of 20.1 µM and an IC (TGI) ([8]; TGI=total growth inhibition (cytostatic effect), read-out: TGI MEL-28) of 15.5 µM. It also gave a GI50 ([9]; GI=growth inhibition, read-out: GI50 HELA-APL) of 20.1 µM, a CC50 ([9]; LC=cell killing (cytotoxic effect), read-out: LC50 HELA-APL) of 20.1 µM and an IC (TGI) ([9]; TGI=total growth inhibition (cytostatic effect), read-out: TGI HELA-APL) of 20.1 µM. It also gave a GI50 ([10]; GI=growth inhibition, read-out: GI50 LN-caP) of 4.01 µM, a CC50 ([10]; LC=cell killing (cytotoxic effect), read-out: LC50 LN-caP) of 20.1 µM and an IC (TGI) ([10]; TGI=total growth inhibition (cytostatic effect), read-out: TGI LN-caP) of 9.75 µM. For the same compound, the GI50 ([11]; GI=growth inhibition, read-out: GI50 A-549) was 5.66 µM, the CC50 ([11]; LC=cell killing (cytotoxic effect), read-out: LC50 A-549) was 20.1 µM and the IC (TGI) ([11]; TGI=total growth inhibition (cytostatic effect), read-out: TGI A-549) was 20.1 µM. It also gave a GI50 ([12]; GI=growth inhibition, read-out: GI50 HT-29) of 2170 nM, a CC50 ([12]; LC=cell killing (cytotoxic effect), read-out: LC50 HT-29) of 20.1 µM and an IC (TGI) ([12]; TGI=total growth inhibition (cytostatic effect), read-out: TGI HT-29) of 20.1 µM. The GI50 ([13]; GI=growth inhibition, read-out: GI50 IGROV-ET) was 20.1 µM, the CC50 ([13]; LC=cell killing (cytotoxic effect), read-out: LC50 IGROV-ET) was 20.1 µM and the IC (TGI) ([13]; TGI=total growth inhibition (cytostatic effect), read-out: TGI IGROV-ET) was 20.1 µM. It also gave a GI50 ([14]; GI=growth inhibition, read-out: GI50 HELA) of 590 nM, a CC50 ([14]; LC=cell killing (cytotoxic effect), read-out: LC50 HELA) of 20.1 µM and an IC (TGI) ([14]; TGI=total growth inhibition (cytostatic effect), read-out: TGI HELA) of 12.3 µM.
